Results reported in ChEMBL document CHEMBL1811798, “Synthesis and evaluation of 2'-O-allyl substituted dinucleotide cap analog for mRNA translation” (Bioorg Med Chem, 2010).
Calls of active or inactive are those of the source. The calls are words filed in the database; no cut-off is given here.

Key:
Nucleic Acid [1] = assay: Capping efficiency on beta-actin mRNA using [alpha-32P]-ATP at 1.6 mM after 2 hrs by gel shift assay in presence of T7 RNA polymerase; assay type: nucleic-acid assay
Nucleic Acid [2] = assay: Capping efficiency on beta-actin mRNA using [alpha-32P]-ATP at 1.6 mM after 2 hrs by HPLC analysis in presence of T7 RNA polymerase; assay type: nucleic-acid assay
Escherichia phage T7 = assay: Binding affinity to bacteriophage T7 RNA polymerase assessed as incorporation of compound into supercoiled mRNA transcript at 6 mM after 2 hrs
HeLa = assay: Translational efficiency bacteriophage T7 RNA polymerase expressed in human HeLa cells assessed as protein production using 5'-capped RAN after 16 hrs of post-transfection by luciferase reporter gene assay relative to standard cap analog; assay type: cell-based; conditions: Escherichia phage T7

## C=CCO[C@@H]1[C@H](O)[C@@H](COP(=O)(O)OP(=O)([O-])OP(=O)(O)OC[C@H]2O[C@@H](n3cnc4c(=O)[nH]c(N)nc43)[C@H](O)[C@@H]2O)O[C@H]1[n+]1cn(C)c2c(=O)[nH]c(N)nc21
Nucleic Acid [1]
  Activity: 70%
Nucleic Acid [2]
  Activity: Active
Escherichia phage T7
  Activity: Active
HeLa
  fold change (FC): 1.7
